The results in this text go back to patent US20040014648A1, “Methods for the prevention and/or the treatment of neurological disorders” (FAUST PHARMACEUTICALS, priority 2002, published 2004).

Assay [1] deals with primary cultures of neurons, isolated from the rat brain cortex. As to the kind of experiment: Neuroprotection assay: Ionomycin-evoked neuron cell death (LDH release). It is filed as cell-based. To be noted: FIG. 4. As for the experimental part: (§1) Primary cortical neuron cultures.
Assessment of neuron cell death.
The neurons were treated in vitro with 5 μM of Ionomycin (Sigma), a calcium ionophore, in presence of 10 μM of 1-Naphthol, in absence or in presence of 5 or 10 μM of 3-methylcholanthrene (3-MC, Aldrich), an UGT inducer which allows the in situ glucuronidation of 1-Naphthol.
(In general: LDH in the medium is a marker of cell lysis.)

The subject of assay [2] is primary cultures of neurons isolated from the rat brain cortex. As to the kind of experiment: Glutamate level determination (chemiluminescent enzymatic assay). To be noted: FIG. 5. It is filed as cell-based. As for the experimental part:
as §1
Assessment of glutamate release. Glutamate released by neurons in culture was evaluated in aliquots of the supernatants by means of a chemiluminescent enzymatic assay (Israel et al., Neurochem Int. 1993 Jan. 22(1):53-8).
The glutamate released by neurons was followed by an enzymatic assay coupled to a chemiluminescent reaction. […]

Assay [3] deals with primary cultures of neurons, isolated from the rat brain cortex. To be noted: 3-NP 400 μM, 24 hours; compound at 0.1, 1 and 5 μM; FIG. 2.

Regarding `Cc1ccc2cc3c(ccc4ccccc43)c3c2c1CC3` [3-Methylcholanthrene, 3-methylcholanthrene, reference compound], the “protective effect against the toxicity induced by Ionomycin” value in assay [1] (Ionomycin 5 μM, compound alone at 5 or 10 μM (lanes 5, 6)) is given as “no protective effect against the toxicity induced by Ionomycin”. In assay [1] (compound alone at 5 or 10 μM, no Ionomycin (lanes 2, 3)), the “effect on the natural death of neurons” value is on record as “no effect on the natural death of neurons”. Also, the “glutamate release by neurons” value in assay [2] (compound alone at 5 μM (lane 3)) is “have no effect on glutamate release”.
Take `CN1C(=O)CN=C(c2ccccc2)c2cc(Cl)ccc21` [Diazepam]: the “protection of neurons from 3-NP-evoked cell death” value in assay [3] was “protects neurons from 3-NP at all tested doses”.
As to `Oc1cccc2ccccc12` [1-Naphthol], the “protective effect with in situ glucuronidation by 3-MC” value in assay [1] (Ionomycin 5 μM, compound at 10 μM plus 3-MC 5 or 10 μM) is on record as “reinforces, dose dependently, the protective effect”. In addition, the “protection of neurons from Ionomycin-evoked cell death” value in assay [1] (Ionomycin 5 μM, compound at 10 μM) is on record as “protects neurons from Ionomycin-evoked cell death”. The “glutamate release by neurons” value in assay [2] (compound at 1 μM and 10 μM (lanes 4, 7)) is given as “at both concentrations reduces the release of glutamate”; in assay [2] (compound at 10 μM), “reduces glutamate release”. Further, the “glutamate release with glucuronidation by 3-MC” value in assay [2] (compound at 10 μM plus 3-MC 1 or 5 μM) is “reinforces, dose dependently, the decrease of glutamate”. In addition, the “significance of the improved decrease of glutamate with 3-Methylcholanthrene” value in assay [2] (compound at 1 or 10 μM plus 3-Methylcholanthrene 5 μM (lanes 6, 9)) is recorded as “statistically significant at the highest dose of 3-Methylcholanthrene”.
